Where two headings read alike, the source gives them in different places.
Tests used:
ERK = ERK phosphorylation in primary rat SNc dopaminergic neurons, p-ERK staining; format: cell-based; details: primary rat SNc neuron culture, A9 1 μM, 1 hour
Protocol: Primary cultures of rat embryonic SNc neurons were stimulated with vehicle (NT) or A9 (1 μM) for 1 hour and then stained for tyrosine hydroxylase (TH) and phospho-ERK (p-ERK). Images were digitally captured with an Olympus CX640 fluorescence microscope.
Primary Neuronal Cultures: The substantia nigra or striatal region is dissected from 4 day-old Sprague-Dawley rats and incubated in minimum essential medium (MEM) containing 20 U/ml papain for 2 hours at 37° C. The tissue is then triturated using fire-polished Pasteur pipettes in MEM supplemented with 10% fetal bovine serum, 0.45% glucose, […] insulin, 0.5 mM glutamine, 100 U/ml penicillin, and 100 μg/ml streptomycin. Cells are plated on 18 mm diameter poly-D-lysine-coated glass coverslips (Fisher 12-545-84 18cir-1D) at a density of 75,000 cells per coverslip for immunofluorescence imaging or in 12-well or 6-well tissue culture plates for immunoblotting studies. […]
Cell preparation for microscopy: Neuroblastoma cells and rat striatal neurons are grown on glass coverslips and treated with poly-D-Lysine. […] The samples are examined by an Olympus CX640 fluorescence microscope, or scanned with a Leica TCS SP confocal laser scanning microscope. Images are digitally captured and recorded with computer. […]

Solubility of A9 stock = format: physicochemical
Protocol: 5. Physical properties: A9 stock can be dissolved in ethanol, methylene chloride, or DMSO as high as 25 mg/ml. The stock of A9 can then be diluted in water or saline. The final concentration in saline can reach 10 mg/ml according to our experience. A9 is very stable in organic solvents and keeps its activity (indicated by its ability to stimulate ERK activation in NS20Y cells, data not shown) for 6 months at room temperature. […] In saline, its half-life was reported to be 4 days at 37° C. (Golumb, Atherosclerosis 125:171-182, 1996). […] A similar evaluation of the chemical nature of any tyrphostin can be used to determine if it is of use to induce neurite outgrowth and regeneration in a subject.

CC(C)(C)c1cc(C=C(C#N)C#N)cc(C(C)(C)C)c1O [A9, tyrphostin A9]
ERK phosphorylation/activation in dopaminergic neurons (ERK): induced robust ERK activation
ERK phosphorylation/activation in dopaminergic neurons (ERK; listed as tyrphostin A9): induced ERK phosphorylation
solubility (Solubility of A9 stock; aqueous with cosolvent or surfactant or cyclodextrin, kinetic from dmso stock, stock diluted in saline, read-out: Final concentration in saline): ≥ 10 mg/mL
solubility (Solubility of A9 stock; organic solvent or mixture, in ethanol, methylene chloride, or DMSO, read-out: Solubility of stock): ≤ 25 mg/mL

From patent US20090012179A1, “Use of Tyrphostins to Stimulate Neurite Outgrowth” (priority 2004, published 2009)
